# Structures can show the parent of a compound that is named as a salt.
# Molecular target: T1, human sigma 1 receptor (Homo sapiens, UniProt Q99720)
# T1 construct: expressed in transfected cells; host or cells: HEK-293
# Experiment: Human sigma 1 receptor radioligand assay ([3H](+)-pentazocine, transfected HEK-293 membranes)
# Type: binding
# Conditions: 5 nM [3H](+)-pentazocine, 37° C., 120 minutes
# Method: Biological Activity Pharmacological Study Human Sigma 1 Receptor Radioligand Assay
# To investigate binding properties of sigma 1 receptor ligands to human sigma 1 receptor, transfected HEK-293 membranes and [^3H](+)-pentazocine (Perkin Elmer, NET-1056), as the radioligand, were used. The assay was carried out with 7 μg of membrane suspension, 5 nM of [^3H](+)-pentazocine in either absence or presence of either buffer or 10 μM Haloperidol for total and non-specific binding, respectively. Binding buffer contained Tris-HCl 50 mM at pH 8. Plates were incubated at 37° C. for 120 minutes. After the incubation period, the reaction mix was then transferred to MultiScreen HTS, FC plates (Millipore), filtered and plates were washed 3 times with ice-cold 10 mM TrisHCL (pH7.4). Filters were dried and counted at approximately 40% efficiency in a MicroBeta scintillation counter (Perkin-Elmer) using EcoScint liquid scintillation cocktail.
# T1 sequence (Q99720 whole entry): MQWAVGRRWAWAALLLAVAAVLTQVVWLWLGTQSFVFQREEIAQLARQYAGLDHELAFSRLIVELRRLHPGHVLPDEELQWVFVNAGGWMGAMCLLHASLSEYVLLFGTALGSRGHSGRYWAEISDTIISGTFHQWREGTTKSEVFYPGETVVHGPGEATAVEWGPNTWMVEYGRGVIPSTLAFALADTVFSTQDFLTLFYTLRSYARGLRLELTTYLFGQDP
row,Structure (SMILES),Ki [nM]
1,"Cc1c2n(c3ccccc13)CCN(CCN1CCCCCC1)C2 [Example 8, 2-(2-(azepan-1-yl)ethyl)-10-methyl-1,2,3,4-tetrahydropyrazino[1,2-a]indole]",12.5
2,"c1ccc2c(c1)CC1CN(CCN3CCCCCC3)CCN21 (stereo not shown) [Example 2, 2-(2-(azepan-1-yl)ethyl)-1,2,3,4,10,10a-hexahydropyrazino[1,2-a]indole]",7.3
3,"Fc1ccc2c(c1)cc1n2CCN(CCN2CCCCCC2)C1 [Example 9, 2-(2-(azepan-1-yl)ethyl)-8-fluoro-1,2,3,4-tetrahydropyrazino[1,2-a]indole]",1.9
4,"CC(CN1CCn2c(cc3ccccc32)C1)N1CCN(C)CC1 (stereo not shown) [Example 1, 2-(2-(4-methylpiperazin-1-yl)propyl)-1,2,3,4-tetrahydropyrazino[1,2-a]indole]",29.8
5,"c1ccc(CC2CCN(CCN3CCn4c(cc5ccccc54)C3)CC2)cc1 [Example 4, 2-(2-(4-benzylpiperidin-1-yl)ethyl)-1,2,3,4-tetrahydropyrazino[1,2-a]indole hydrochloride]",14.6
6,"CC(CN1CCn2c(cc3ccccc32)C1)N1CCC(Cc2ccccc2)CC1 (stereo not shown) [Example 6, 2-(2-(4-benzylpiperidin-1-yl)propyl)-1,2,3,4-tetrahydropyrazino[1,2-a]indole maleate]",175
7,"CN1CCN(CCN2CCn3c(cc4ccccc43)C2)CC1 [Example 5, 2-(2-(4-methylpiperazin-1-yl)ethyl)-1,2,3,4-tetrahydropyrazino[1,2-a]indole hydrochloride]",153
8,"c1ccc2c(c1)cc1n2CCN(CCN2CCCCCC2)C1 [Example 3, 2-(2-(azepan-1-yl)ethyl)-1,2,3,4-tetrahydropyrazino[1,2-a]indole hydrochloride]",3.9
9,"CN(C)CCCCN1CCn2c(cc3ccccc32)C1 [Example 7, 4-(3,4-dihydropyrazino[1,2-a]indol-2(1H)-yl)-N,N-dimethylbutan-1-amine]",89.1

# The next lines start with the values.
row,Ki [nM],Structure (SMILES)
1,8.6,"Fc1ccc2c(c1)cc1n2CCN(CCCCN2CCCCCC2)C1 [Example 15, 2-(4-(azepan-1-yl)butyl)-8-fluoro-1,2,3,4-tetrahydropyrazino[1,2-a]indole]"
2,153,"CN(C)CCCCN1CCN2c3ccccc3CC2C1 (stereo not shown) [Example 19, N,N-dimethyl-4-(3,4,10,10a-tetrahydropyrazino[1,2-a]indol-2(1H)-yl)butan-1-amine]"
3,19.9,"c1ccc2c(c1)cc1n2CCN(CCCN2CCCCCC2)C1 [Example 13, 2-(3-(azepan-1-yl)propyl)-1,2,3,4-tetrahydropyrazino[1,2-a]indole]"
4,9.2,"CC(CN1CCn2c(cc3ccccc32)C1)N1CCN(C2CCCCC2)CC1 (stereo not shown) [Example 17, 2-(2-(4-cyclohexylpiperazin-1-yl)propyl)-1,2,3,4-tetrahydropyrazino[1,2-a]indole]"
5,14.1,"CC(CN1CCn2c(cc3cc(F)ccc32)C1)N1CCN(C)CC1 (stereo not shown) [Example 18, 8-fluoro-2-(2-(4-methylpiperazin-1-yl)propyl)-1,2,3,4-tetrahydropyrazino[1,2-a]indole]"
6,7.4,"Cc1ccc2c(c1)cc1n2CCN(CC(C)N2CCCCCC2)C1 (stereo not shown) [Example 10, 2-(2-(azepan-1-yl)propyl)-8-methyl-1,2,3,4-tetrahydropyrazino[1,2-a]indole]"
7,21.4,"Cc1c2n(c3ccccc13)CCN(CCN1CCC(Cc3ccccc3)CC1)C2 [Example 11, 2-(2-(4-benzylpiperidin-1-yl)ethyl)-10-methyl-1,2,3,4-tetrahydropyrazino[1,2-a]indole]"
8,35.8,"CN1CCN(CCCCN2CCn3c(cc4ccccc43)C2)CC1 [Example 16, 2-(4-(4-methylpiperazin-1-yl)butyl)-1,2,3,4-tetrahydropyrazino[1,2-a]indole]"
9,13.5,"c1ccc2c(c1)cc1n2CCN(CCCCN2CCCCC2)C1 [Example 14, 2-(4-(piperidin-1-yl)butyl)-1,2,3,4-tetrahydropyrazino[1,2-a]indole]"
10,7.6,"Fc1ccc2c(c1)cc1n2CCN(CCCCN2CCCCC2)C1 [Example 12, 8-fluoro-2-(4-(piperidin-1-yl)butyl)-1,2,3,4-tetrahydropyrazino[1,2-a]indole]"
